Measured values from US6379882B1, “Method for selecting compounds for treating ischemia-related cellular damage” (Elan Pharmaceuticals, Inc., priority 1998, dated 2002).
“Also recorded” adds a separate entry of the source. Where two headings read alike, the source gives them in different places.

What was measured:
[1] = test system: retinal ganglion cells; details: literature; cited from earlier work
[2] = test system: retinal ganglion cells; type: cell-based, rat
[3] = test system: rat neocortical tissue slices; details: Evans et al. 1982; Kral et al. 1993; cited from earlier work
[4] = test system: cortical neuronal cells; details: cited from earlier work
[5] = test system: isolated retinas of chick embryos; details: LDH release and histological assessment; Chen et al. 1998; cited from earlier work
[6] = test system: NMDA receptor; details: whole cell recordings; Chen et al. 1998; cited from earlier work
[7] = test system: retinal ganglion cells; details: Lagreze et al. 1998, cited from earlier work
[8] = co-exposure to 1.0 mM, about 24 hours, Yamamoto and Tang 1998

Compound | prevention of NMDA receptor-mediated death of retinal ganglion cells in vivo [1] | protection of oxygen/glucose-deprived RGCs from apoptotic cell death (in words) [2] | protective effect on neurons under ischemic or excitotoxic conditions [5] | NMDA receptor mediated currents [6] | other results
NC(CCCCCP(=O)(O)O)C(=O)O (stereo not drawn) | prevent NMDA receptor-mediated death of retinal ganglion cells in vivo |  |  |  | 
NC(CCCP(=O)(O)O)C(=O)O (racemic) [AP-5, DL-2-amino-5-phosphonovaleric acid] |  | demonstrated biological activity in protecting oxygen/glucose-deprived RGCs from apoptotic cell death |  |  | protective effect in neocortical tissue slices [3]: protective effect
NC(CCCCCP(=O)(O)O)C(=O)O (racemic) [AP-7] |  | demonstrated biological activity in protecting oxygen/glucose-deprived RGCs from apoptotic cell death |  |  | increase of extracellular LDH and neuronal disintegration by potassium cyanide and NMDA [4]: partially prevented
N=C(NCCC[C@H](N)C(=O)O)N[N+](=O)[O-] [N^G-nitro-L-arginine] |  |  |  |  | increase of extracellular LDH and neuronal disintegration by potassium cyanide and NMDA [4, 8]: partially prevented
O=C(O)c1ccccc1Nc1cccc(C(F)(F)F)c1 [flufenamic acid] |  | demonstrated biological activity in protecting oxygen/glucose-deprived RGCs from apoptotic cell death | protective effect | inhibited NMDA receptor mediated currents | 
O=C(O)c1cc(=O)c2ccccc2[nH]1 [kynurenic acid] | prevent NMDA receptor-mediated death of retinal ganglion cells in vivo |  |  |  | 
Cc1ccc(Cl)c(Nc2ccccc2C(=O)O)c1Cl [meclofenamic acid] |  | to a lesser extent; also recorded: Less efficacy | protective effect | inhibited NMDA receptor mediated currents | 
Cc1cccc(Nc2ccccc2C(=O)O)c1C [mefenamic acid] |  | to a lesser extent; also recorded: Less efficacy | protective effect | inhibited NMDA receptor mediated currents | 
COc1ccc2[nH]cc(CCNC(C)=O)c2c1 [melatonin] |  |  |  |  | increase of extracellular LDH and neuronal disintegration by potassium cyanide and NMDA [4, 8]: partially prevented
CC12CC3CC(C)(C1)CC(N)(C3)C2 [memantine] | prevent NMDA receptor-mediated death of retinal ganglion cells in vivo |  |  |  | prevention of NMDA receptor-mediated death of retinal ganglion cells (in words) [7]: prevent NMDA receptor-mediated death of retinal ganglion cells; increase in the number of surviving retinal ganglion cells ([7]; administered before retinal ischemia): ~30%; increase in the number of surviving retinal ganglion cells ([7]; administered within 30 minutes of retinal ischemia): ~20%
